Publication PMC8506967, “Binding specificity and function of the SWI/SNF subunit SMARCA4 bromodomain interaction with acetylated histone H3K14” (The Journal of Biological Chemistry, 2021)
Ends that are not written are not given here.

Key:
[1] = target: T1, BAZ2B BD (Homo sapiens, UniProt Q9UIF8); assay: ITC, BAZ2B bromodomain; assay type: binding; conditions: BAZ2B wt, GST +, 293 or 298 K, 10 mM HEPES, 100 mM NaCl, 2.5% glycerol, pH 7.3
T1 sequence (Q9UIF8 2060-2164 limits assumed): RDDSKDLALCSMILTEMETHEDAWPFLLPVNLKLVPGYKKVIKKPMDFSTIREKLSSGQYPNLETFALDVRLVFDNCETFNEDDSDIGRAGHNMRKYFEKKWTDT

[2] = test system: Saccharomyces cerevisiae Sth1 (ScSth1) BD; conditions: cited from earlier work
Text: How SMARCA4 targets, is recruited to, and interacts with chromatin substrates to induce ATP-dependent nucleosome remodeling has been a long-standing question. Recent structures of the SMARCA4 catalytic-core domain in complex with a nucleosome core particle, as well as a nucleosome-bound SWI/SNF complex comprising SMARCA4 and nine auxiliary subunits, provided insights into the mechanism of SWI/SNF remodeling ([25], [26]). […] Water-mediated hydrogen bonds stabilize the interaction between H3R17 and Tyr1270 on the αC-helix. || We next asked if the SMARCA4-specific residues are also conserved in other family VIII BDs that bind H3K14ac. […] PBRM-1 is an SWI/SNF accessory protein in the PBAF complex that contains six tandem N-terminal BDs ([42]). The second and fourth PBRM-1 BDs (BD(2) and BD(4)) bind H3K14ac ([43], [44]). Due to the low sequence homology outside of the central α A and αB helices ([1]), we aligned the family VIII BDs based on the superposition of their structures and added CeSMARCA4 to the alignm ...

[3] = test system: HsPBRM-1 BD(5); conditions: PBRM-1 BD(5); cited from earlier work
Text: We superimposed each family VIII BD structure onto the CeSMARCA4-BD structure and plotted the deviation for each residue (Fig. 5D and Fig. S2). […] The overall roo ...

[4] = test system: ASH1L-BD; conditions: cited from earlier work
[5] = test system: SMARCA4; conditions: C-terminal BD motif; cited from earlier work
Text: SMARCA4/BRG1 is an essential catalytic core subunit of the roughly two-megadalton Switch/Sucrose Nonfermenting (SWI/SNF) multiprotein complex, which uses the energy of ATP hydrolysis to remodel chromatin by perturbing interactions between histone core particles and DNA ([14], [15]). SMARCA4 can remodel nucleosomal substrates by itself in vitro ([16], [17]) and is functionally and structurally conserved among eukaryotes ([14], [18]).

[6] = test system: PBRM-1 BD(2) and BD(4); conditions: cited from earlier work
Text: (§1) We next asked if the SMARCA4-specific residues are also conserved in other family VIII BDs that bind H3K14ac. […] PBRM-1 is an SWI/SNF accessory protein in the PBAF complex that contains six tandem N-terminal BDs ([42]). The second and fourth PBRM-1 BDs (BD(2) and BD(4)) bind H3K14ac ([43], [44]). Due to the low sequence homology outside of the central α A and αB helices ([1]), we aligned the family VIII BDs based on the superposition of their structures and added CeSMARCA4 to the alignm ...

[7] = test system: PBRM-1; conditions: cited from earlier work
Text: as §1

[8] = test system: SMARCA2; conditions: cited from earlier work
Text: as §1

[9] = test system: four family VIII BD; conditions: cited from earlier work
Text: How SMARCA4 targets, is recruited to, and interacts with chromatin substrates to induce ATP-dependent nucleosome remodeling has been a long-standing question. Recent structures of the SMARCA4 catalytic-core domain in complex with a nucleosome core particle, as well as a nucleosome-bound SWI/SNF complex comprising SMARCA4 and nine auxiliary subunits, provided insights into the mechanism of SWI/SNF remodeling ([25], [26]). But the structural basis underlying SMARCA4 recognition of its histone tail target has remained elusive despite the existence of SMARCA4 structures in the apo state ([1], [27] ...

[10] = target: T2, human BAZ2B bromodomain (human); assay: ITC
T2 chain: T1 sequence (Q9UIF8 2060-2164 limits assumed)

[11] = target: T3, CeSMARCA4 BD crystallisation construct (residues Lys1176–Glu1296, Phe1287Ser) (C. elegans, UniProt G5EF53 1176-1296, Phe1287Ser); assay: crystal structure; BD incubated with 2:1 M excess H3_(7–20)K14ac peptide at 4 °C, sitting-drop vapor diffusion, 35% PEG smear; 1.29 Å, space group P4_(1)2_(1)2; conditions: both partners purified
T3 construct: SWSN-4 (CeSMARCA4), C. elegans, bromodomain, residues Lys1176-Glu1296 with the point mutation Phe1287Ser; pGEX-6P-1 vector with an HRV 3C protease site; also called untagged CeSMARCA4 BD; source: E. coli BL21 (DE3), purified (Glutathione Sepharose, PreScission cleavage, Q Sepharose, Sephacryl S-200); not shown: GST, N-terminal, cleaved
T3 sequence (looked up): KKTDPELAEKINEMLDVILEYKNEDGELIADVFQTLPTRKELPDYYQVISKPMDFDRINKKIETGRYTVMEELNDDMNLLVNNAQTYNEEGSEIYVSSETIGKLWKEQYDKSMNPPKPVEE

[12] = target: T4, CeSMARCA4 GST–BD fusion (C. elegans SMARCA4/SWSN-4 bromodomain, residues D1179–N1289, GST-tagged) (C. elegans, UniProt G5EF53 1179-1289); assay: ITC; MicroCal Auto-iTC200, 293 or 298 K, 10 mM HEPES, 100 mM NaCl, 2.5% glycerol, pH 7.3; protein 50–100 μM in the cell, peptide 500–1000 μM in the syringe; single-site binding model; conditions: both partners purified
T4 construct: SWSN-4 (CeSMARCA4, ortholog of human SMARCA4/BRG1), C. elegans, bromodomain, residues D1179-N1289; Cloned from Bristol N2 cDNA into a pGEX vector; also called GST-CeSMARCA4; CeSMARCA4 BD; source: E. coli BL21 (DE3), purified (Glutathione Sepharose 4B, eluted with reduced glutathione, dialysed); not shown: GST, N-terminal, kept
T4 sequence (looked up): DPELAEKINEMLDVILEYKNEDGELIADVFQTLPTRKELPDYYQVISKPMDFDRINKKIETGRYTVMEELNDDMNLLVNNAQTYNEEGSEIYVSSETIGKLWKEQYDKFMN

[13] = target: T5, CeSMARCA4 BD with the GST tag cleaved off (ITC) (C. elegans, UniProt G5EF53 1179-1289); assay: as above; conditions: both partners purified
T5 construct: SWSN-4 (CeSMARCA4), C. elegans, bromodomain; the Asp1179-Asn1289 construct is the one named for ITC; A protease site and cleavage are described only for the crystallisation construct (K1176-E1296, F1287S); also called CeSMARCA4 bromodomain, GST tag removed; source: E. coli BL21 (DE3), purified, GST tag cleaved off; not shown: GST, N-terminal, cleaved
T5 sequence (looked up): T4 sequence (looked up)

## CC(=O)NCCCC[C@H](NC(=O)CNC(=O)CNC(=O)[C@@H](NC(=O)[C@H](CO)NC(=O)[C@H](CCCCN)NC(=O)[C@H](CCCNC(=N)N)NC(=O)[C@H](C)N)[C@@H](C)O)C(=O)N[C@@H](C)C(=O)N1CCC[C@H]1C(=O)N[C@@H](CCCNC(=N)N)C(=O)N[C@@H](CCCCN)C(=O)N[C@@H](CCC(N)=O)C(=O)N[C@@H](CC(C)C)C(=O)O [H3_7–20K14ac]
[1]
  Kd: 12.1 ± 0.2 µM

## H3K14ac: lysine 14 acetylation on histone H3 (ARKSTGGKAPRKQL; not fully specified (residue 8); also: K14 acetylation, chain position not given here)
[2]
  binding of mutated H3 peptide / acetylated mark to ScSth1 BD: binds more promiscuously
  selective H3K14ac binding: reported to selectivity bind
[3]
  H3K14ac binding: cannot bind
[4]
  H3K14ac binding: unable to bind
[5]
  H3K14ac recognition: capable of recognizing
[6]
  H3K14ac binding: bind
[7]
  selective H3K14ac binding: reported to selectivity bind
[8]
  selective H3K14ac binding: reported to selectivity bind

## O=C(/C=C/N1C[C@H]2C[C@@H]1CN2c1ccccn1)c1ccccc1O [PFI-3]
[9]
  selectivity of chemical probe: selective for four family VIII BD

B1: histone H3_(7–20)K14ac peptide (peptide, UniProt P68431 8-21, looked up)
peptide: ARKSTGGK(Ac)APRKQL
notes: histone H3 N-terminal tail, residues 7-20; also called H3K14ac peptide
[10]
  Kd: 12.1 µM
[11]
  binding result: binds
[12]
  Kd: 11.6 ± 0.1 µM
[13]
  Kd: 23.4 ± 0.8 µM
